Key:
[1] = Gd3+ release from gadodiamide and Gd-FPFNP (dialysis, Xylenol orange); type: physicochemical; conditions: 24th hour; 1.05 mM gadodiamide; PBS, 37° C.
Method: In order to monitor the in vitro release of gadolinium(III) ions (Gd^3+) from gadodiamide and Gd-FPFNP, a respective one of gadodiamide at concentration of 1.05 mM and Gd-FPFNP that was loaded with 1.05 mM of gadodiamide were incubated in DMEM, and then added into a dialysis tube with cellulose membrane having a molecular weight cutoff of 1 kDa, followed by immersing the dialysis tube in 10 mL of PBS and stirring at 37° C. Thereafter, 0.5 mL aliquots of the PBS were taken out at the 3rd hour and 24th hour of stirring, followed by addition of Xylenol orange agent and analysis using a UV-Vis detector conducted according to procedures described by Barge A. et al., in an article entitled “How to determine free Gd and free ligand in solution of Gd chelates. A technical note.” published in Contrast Media Mol. Imaging, 2006, Vol. 1, p. 184-188, so as to determine the amount of Gd^3+ released in vitro.

[2] = Biodistribution in vital organs with different treatment regimens (ICP-MS); type: in vivo, rat; conditions: 24th hour post-administration
Description: In order to determine the differences in biodistribution of the cell-nanoparticle drug delivery system with those of gadodiamide and Gd-FPFNP in vital organs, the orthotopic GBM-bearing rats prepared in section B above were divided into 4 groups, namely, comparative groups 1 and 2 (CG1 and CG2), and experimental groups 1 and 2 (EG1 and EG2), with n=4 per each group. […] At the 24th hour post-administration, the orthotopic GBM-bearing rats in each group were sacrificed, and the blood and tissues from the heart, liver, spleen, lung, kidney, intestine, left brain and right brain were subjected to the pre-processing steps as described in section E above, and then subjected to quantification of elemental gadolinium (Gd) content by ICP-MS system as described in Item 5 of section B in Example 1. The results were expressed as percentage of administered (injected) dose per gram tissue (ID/g), calculated using the aforesaid formula (3), and shown in FIG. 16.

## CNC(=O)CN(CCN(CCN(CC(=O)[O-])CC(=O)NC)CC(=O)[O-])CC(=O)[O-].[Gd+3] [gadodiamide, Gadodiamide]
[1]
  concentration of Gd3+ released: 38.6 µM
[2]
  elemental gadolinium in vital organs: not or hardly detected
